Columns and labels:
[1] = test system: subjects with Anxiety disorder; assay: 48-day daily oral treatment, subjects diagnosed with anxiety disorder; type: in vivo; conditions: 4 subjects with anxiety disorder; 48-day treatment, daily oral dose 30 mg; increase
Method: (§1) In a 48-day treatment, 50 subjects suffering from diverse medical conditions receive a daily oral dose with either • pure psilocybin (30 mg); • pure cannabidiol (30 mg); or • combined treatment of pure psilocybin (30 mg)+pure cannabidiol (30 mg).

subjects with Dementia = assay: 48-day daily oral treatment, subjects diagnosed with dementia; type: in vivo; conditions: 10 subjects with dementia, 48-day treatment, 30 mg of each active
Method: as §1

[2] = test system: subjects with Psychotic disorder; assay: 48-day daily oral treatment, subjects diagnosed with psychotic disorder; type: in vivo; conditions: 3 subjects with psychotic disorder; 48-day treatment, daily oral dose 30 mg; increase
Method: as §1

[3] = test system: subjects with Huntington's disease; assay: 48-day daily oral treatment, subject diagnosed with Huntington's disease; type: in vivo; conditions: 1 subject with Huntington's disease, 48-day treatment, 30 mg of each active
Method: as §1

[4] = test system: subjects with Schizophrenia; assay: 48-day daily oral treatment, subjects diagnosed with schizophrenia; type: in vivo; conditions: 2 subjects with schizophrenia, 48-day treatment, 30 mg of each active, decrease
Method: as §1

subjects with Depression = assay: 48-day daily oral treatment, subjects diagnosed with depression; type: in vivo; conditions: 14 subjects with depression, 48-day treatment, 30 mg of each active
Method: as §1

[5] = test system: subjects with Alzheimer's disease; assay: 48-day daily oral treatment, subjects diagnosed with Alzheimer's disease; type: in vivo; conditions: 10 subjects with Alzheimer's disease, 48-day treatment, 30 mg of each active
Method: as §1

[6] = test system: subjects with Panic disorder; assay: 48-day daily oral treatment, subjects diagnosed with panic disorder; type: in vivo; conditions: 2 subjects with panic disorder; 48-day treatment, daily oral dose 30 mg; increase
Method: as §1

[7] = test system: subjects with Parkinson's disease; assay: 48-day daily oral treatment, subjects diagnosed with Parkinson's disease; type: in vivo; conditions: 4 subjects with Parkinson's disease, 48-day treatment, 30 mg of each active
Method: as §1

[8] = general statement in description; cited from earlier work

SMILES | increased occurrence of anxiety attacks during period of treatment, on average [1] | progression of disease symptoms during treatment (subjects with Dementia) | increased occurrence of psychotic episodes during period of treatment, on average [2] | progression of movement, cognitive, and psychiatric disorders during treatment [3] | decreased occurrence of schizophrenic episodes during period of treatment, on average [4] | subjects report improved mood after period of treatment (subjects with Depression) | progression of disease symptoms during treatment [5] | Increased occurrence of panic attacks during period of treatment, on average [6] | progression of movement disorders during treatment [7] | toxicity [8]
C=C(C)[C@@H]1CCC(C)=C[C@H]1c1c(O)cc(CCCCC)cc1O [cannabidiol] | on average, 40% | normal progression | on average, 10% | normal progression | on average, 50% | 5 subjects report | normal progression | on average, 40% | normal progression | –
CN(C)CCc1c[nH]c2cccc(OP(=O)(O)O)c12 [psilocybin, [3-(2-dimethylaminoethyl)-1H-indol-4-yl] dihydrogen phosphate] | on average, 50% | – | on average, 20% | – | on average, 0% | 6 subjects report | – | on average, 50% | – | low toxicity
